Experiment [1] has as its system HeLa. Description: Antiproliferative activity against BRCA1-deficient human HeLa cells after 7 days by celltiter-blue assay. The format is functional. The following applies: 168 h. Background: Alamar Blue is a resazurin reagent that responds to reducing activity.
Experiment [2] deals with HeLa. Description: Antiproliferative activity against BRCA1-proficient human HeLa cells after 7 days by celltiter-blue assay. The format is functional. The following applies: 168 h.
In experiment [3] the target is Poly [ADP-ribose] polymerase 1 (Homo sapiens, UniProt P09874). Description: Inhibition of PARP1 by topcount microplate scintillation counter.

A value given as a limit tells only on which side of the number the result lay.

Sequence of Poly [ADP-ribose] polymerase 1 (P09874 whole entry): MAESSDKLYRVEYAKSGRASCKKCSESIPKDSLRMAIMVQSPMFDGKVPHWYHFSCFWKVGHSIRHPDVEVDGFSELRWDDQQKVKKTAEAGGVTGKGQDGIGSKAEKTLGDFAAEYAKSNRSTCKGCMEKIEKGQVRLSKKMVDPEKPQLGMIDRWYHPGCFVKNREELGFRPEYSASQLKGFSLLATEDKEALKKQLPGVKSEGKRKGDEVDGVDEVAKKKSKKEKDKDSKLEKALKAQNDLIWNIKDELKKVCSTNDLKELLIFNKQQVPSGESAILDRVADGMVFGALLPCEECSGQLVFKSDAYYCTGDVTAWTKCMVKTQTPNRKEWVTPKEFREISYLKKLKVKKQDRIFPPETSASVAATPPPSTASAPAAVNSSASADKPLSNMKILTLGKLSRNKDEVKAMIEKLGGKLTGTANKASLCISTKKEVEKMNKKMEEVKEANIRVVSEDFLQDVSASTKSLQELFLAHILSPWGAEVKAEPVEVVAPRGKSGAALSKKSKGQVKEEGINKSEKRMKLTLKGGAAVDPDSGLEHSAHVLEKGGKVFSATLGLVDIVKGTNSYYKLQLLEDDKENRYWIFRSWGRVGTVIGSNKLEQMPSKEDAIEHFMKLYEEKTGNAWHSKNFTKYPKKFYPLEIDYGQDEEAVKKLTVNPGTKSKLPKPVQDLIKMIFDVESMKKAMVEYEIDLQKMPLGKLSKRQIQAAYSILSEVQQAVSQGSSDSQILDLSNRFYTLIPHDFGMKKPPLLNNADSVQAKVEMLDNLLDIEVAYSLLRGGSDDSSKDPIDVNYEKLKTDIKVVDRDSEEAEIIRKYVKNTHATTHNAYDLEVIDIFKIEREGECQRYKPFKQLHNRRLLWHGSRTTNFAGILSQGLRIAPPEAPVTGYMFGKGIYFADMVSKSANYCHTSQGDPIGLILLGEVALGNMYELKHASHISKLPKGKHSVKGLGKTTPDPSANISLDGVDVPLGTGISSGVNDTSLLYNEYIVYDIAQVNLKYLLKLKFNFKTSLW

`O=C(c1cc(Cc2c[nH]c(=O)c3cc(Cl)c(Cl)n23)ccc1F)N1CCN(c2ncccn2)CC1`: the results for the CC50 in experiment [1] and in experiment [2] were 130 nM and 2800 nM, respectively. In addition, in experiment [3], 3.1 nM corresponded to half-maximal inhibition (IC50).
As for `CCCCN1CCN(C(=O)c2cc(Cc3c[nH]c(=O)c4cc(Cl)c(Cl)n34)ccc2F)CC1`, the CC50 in experiment [1] was 1600 nM; in experiment [2] it was greater than 10000 nM. The compound further registered an IC50 in experiment [3] of 13 nM.
In the same order, the values of `CN(C)C(=O)N1CCN(C(=O)c2cc(Cc3c[nH]c(=O)c4cc(Cl)c(Cl)n34)ccc2F)CC1` are 670 nM, greater than 10000 nM and 7.2 nM.
Turning to `O=C(c1cc(Cc2c[nH]c(=O)c3cc(Cl)c(Cl)n23)ccc1F)N1CCC(N2CCC2)CC1`, the figures for the half-maximal cytotoxic concentration (CC50) in experiment [1] and in experiment [2] were 180 nM and greater than 10000 nM, respectively. The IC50 in experiment [3] was 1 nM.
Consider `O=C(c1cc(Cc2c[nH]c(=O)c3cc(Cl)c(Cl)n23)ccc1F)N1CCCCC1`, for which the IC50 in experiment [3] was found to be 200 nM.
In the case of `O=C(c1cc(Cc2c[nH]c(=O)c3cc(Cl)c(Cl)n23)ccc1F)N1CCC2(CCN2)CC1`, the CC50 in experiment [1] is 2300 nM; in experiment [2], greater than 5000 nM. Further, in experiment [3], the IC50 was determined as 8.2 nM.
As for `CN(C)C1CCN(C(=O)c2cc(Cc3c[nH]c(=O)c4cc(Cl)c(Cl)n34)ccc2F)CC1`, the 50% cytotoxic concentration (CC50) in experiment [1] was 1600 nM; in experiment [2], greater than 10000 nM. In addition, in experiment [3], the IC50 stood at 2.6 nM.
Turning to `O=C(c1cc(Cc2c[nH]c(=O)c3cc(Cl)c(Cl)n23)ccc1F)N1CCN(C2CCCCC2)CC1`, the CC50 in experiment [1] was 970 nM; in experiment [2], greater than 5000 nM. Moreover, the IC50 in experiment [3] stood at 14 nM.
On to `CCN(CC)C1CCN(C(=O)c2cc(Cc3c[nH]c(=O)c4cc(Cl)c(Cl)n34)ccc2F)CC1`, for which the CC50 in experiment [1] was 1100 nM; in experiment [2] it was greater than 5000 nM. Further, in experiment [3], inhibition was half-maximal at 22 nM (IC50).
Consider `O=C(c1cc(Cc2c[nH]c(=O)c3cc(Cl)c(Cl)n23)ccc1F)N1CCC2(CC1)NCNC2=O`, for which the CC50 in experiment [1] is greater than 2500 nM; in experiment [2], greater than 5000 nM. The compound also registered an IC50 in experiment [3] of 9 nM.
For the compound `O=C(c1cc(Cc2c[nH]c(=O)c3cc(Cl)c(Cl)n23)ccc1F)N1CCN(c2cc3ccccc3cn2)CC1`, the CC50 worked out at 320 nM in experiment [1] and 1200 nM in experiment [2]. In experiment [3], this compound returned an IC50 of 1.8 nM.
For `O=C(c1cc(Cc2c[nH]c(=O)c3cc(Cl)c(Cl)n23)ccc1F)N1CCNCC1`, the CC50 in experiment [1] was 180 nM; in experiment [2], greater than 20000 nM. The same compound yielded a half-maximal inhibitory concentration (IC50) in experiment [3] of 2.3 nM.
In turn, `CN1CCN(C(=O)c2cc(Cc3c[nH]c(=O)c4cc(Cl)c(Cl)n34)ccc2F)CC1` showed an IC50 in experiment [3] of 41 nM.
As to `COc1cccnc1N1CCN(C(=O)c2cc(Cc3c[nH]c(=O)c4cc(Cl)c(Cl)n34)ccc2F)CC1`, the CC50 was 2700 nM in experiment [1] and greater than 5000 nM in experiment [2]. Half-maximal inhibition in experiment [3] (IC50) required 15 nM.
Take `O=C(c1cc(Cc2c[nH]c(=O)c3cc(Cl)c(Cl)n23)ccc1F)N1CCN(c2ccccc2F)CC1`: the CC50 in experiment [1] and in experiment [2] was greater than 10000 nM each time. The compound also returned an IC50 in experiment [3] of 24 nM.
On to `O=C(c1cc(Cc2c[nH]c(=O)c3cc(Cl)c(Cl)n23)ccc1F)N1CCN(CCO)CC1`, for which the CC50 in experiment [1] is greater than 5000 nM; in experiment [2] it was greater than 10000 nM. In experiment [3], the concentration for half-maximal inhibition (IC50) came to 13 nM.
In the same order, the values of `O=C(c1cc(Cc2c[nH]c(=O)c3cc(Cl)c(Cl)n23)ccc1F)N1CCN(c2ncnc3ccccc23)CC1` are 60 nM, 920 nM and 1.4 nM.
Regarding `CN(C)S(=O)(=O)N1CCN(C(=O)c2cc(Cc3c[nH]c(=O)c4cc(Cl)c(Cl)n34)ccc2F)CC1`, the CC50 in experiment [1] is 910 nM; in experiment [2], greater than 10000 nM. Besides, the IC50 in experiment [3] worked out at 2.4 nM.
In the same order, the values of `CN(C)CC(=O)N1CCN(C(=O)c2cc(Cc3c[nH]c(=O)c4cc(Cl)c(Cl)n34)ccc2F)CC1` are 3500 nM, greater than 10000 nM and 2.5 nM.
The corresponding values for `CN(C)C(C)(C)C(=O)N1CCN(C(=O)c2cc(Cc3c[nH]c(=O)c4cc(Cl)c(Cl)n34)ccc2F)CC1` are 200 nM, greater than 5000 nM and 5.1 nM.
The corresponding values for `CCS(=O)(=O)N1CCN(C(=O)c2cc(Cc3c[nH]c(=O)c4cc(Cl)c(Cl)n34)ccc2F)CC1` are 3000 nM, greater than 5000 nM and 9 nM.
On to `CC(C)(C)C(=O)N1CCN(C(=O)c2cc(Cc3c[nH]c(=O)c4cc(Cl)c(Cl)n34)ccc2F)CC1`, for which the CC50 in experiment [1] is 340 nM; in experiment [2], greater than 5000 nM. This compound yielded an IC50 in experiment [3] of 1 nM.
In the same order, the values of `O=C(c1cc(Cc2c[nH]c(=O)c3cc(Cl)c(Cl)n23)ccc1F)N1CCN(C(=O)C2CCCC2)CC1` are 270 nM, greater than 5000 nM and 3.7 nM.
`O=C(c1cc(Cc2c[nH]c(=O)c3cc(Cl)c(Cl)n23)ccc1F)N1CCOCC1` displayed an IC50 in experiment [3] of 59 nM.
Regarding `CC(C)CN1CCN(C(=O)c2cc(Cc3c[nH]c(=O)c4cc(Cl)c(Cl)n34)ccc2F)CC1`, the CC50 in experiment [1] is 250 nM; in experiment [2] it was greater than 10000 nM. For the same compound, the IC50 in experiment [3] came out at 14 nM.
Take `CN(C)CCN1CCN(C(=O)c2cc(Cc3c[nH]c(=O)c4cc(Cl)c(Cl)n34)ccc2F)CC1`: the half-maximal cytotoxic concentration (CC50) in experiment [1] and in experiment [2] was greater than 10000 nM throughout. For the same compound, half-maximal inhibition in experiment [3] (IC50) was put at 18 nM.
Regarding `O=C(c1cc(Cc2c[nH]c(=O)c3cc(Cl)c(Cl)n23)ccc1F)N1CCC2(CCCCN2)CC1`, the CC50 was 220 nM in experiment [1] and greater than 5000 nM in experiment [2]. The compound further showed an IC50 in experiment [3] of 6.2 nM.
The corresponding values for `CC(=O)N1CCN(C(=O)c2cc(Cc3c[nH]c(=O)c4cc(Cl)c(Cl)n34)ccc2F)CC1` are 700 nM, greater than 10000 nM and 6.3 nM.
The corresponding values for `N#Cc1ccc(N2CCN(C(=O)c3cc(Cc4c[nH]c(=O)c5cc(Cl)c(Cl)n45)ccc3F)CC2)nc1` are 200 nM, 4200 nM and 14 nM.
In the same order, the values of `O=C(c1cc(Cc2c[nH]c(=O)c3cc(Cl)c(Cl)n23)ccc1F)N1CCN(c2ncc3ccccc3n2)CC1` are 190 nM, 770 nM and 1 nM.
For `CNC1CCN(C(=O)c2cc(Cc3c[nH]c(=O)c4cc(Cl)c(Cl)n34)ccc2F)CC1`, the results for the CC50 in experiment [1] and in experiment [2] were 400 nM and greater than 5000 nM, respectively. This compound came in with an IC50 in experiment [3] of 2.3 nM.
The corresponding values for `O=C(c1ncc[nH]1)N1CCN(C(=O)c2cc(Cc3c[nH]c(=O)c4cc(Cl)c(Cl)n34)ccc2F)CC1` are 500 nM, greater than 5000 nM and 3.1 nM.
The corresponding values for `CN(C)C(=O)C(=O)N1CCN(C(=O)c2cc(Cc3c[nH]c(=O)c4cc(Cl)c(Cl)n34)ccc2F)CC1` are 1800 nM, greater than 10000 nM and 2 nM.
Turning to `O=C(c1cc(Cc2c[nH]c(=O)c3cc(Cl)c(Cl)n23)ccc1F)N1CCN(c2ccccn2)CC1`, the CC50 is 430 nM in experiment [1] and greater than 10000 nM in experiment [2]. The compound also yielded an IC50 in experiment [3] of 2.8 nM.
In the same order, the values of `NC1CCN(C(=O)c2cc(Cc3c[nH]c(=O)c4cc(Cl)c(Cl)n34)ccc2F)CC1` are 3800 nM, greater than 10000 nM and 7.1 nM.
For `CCC(=O)N1CCN(C(=O)c2cc(Cc3c[nH]c(=O)c4cc(Cl)c(Cl)n34)ccc2F)CC1`, the results for the cytotoxic concentration (CC50) in experiment [1] and in experiment [2] were 1200 nM and greater than 5000 nM, respectively. In experiment [3], this compound showed an IC50 of 3.2 nM.

A word on the CC50: it is the concentration at which the toxic effect on the cells reaches its halfway point. A higher CC50 goes with better tolerance by the cells. One may read the IC50 as the midpoint of a concentration-inhibition curve. Higher therefore signals weaker potency in that assay.

Values taken from ChEMBL document CHEMBL1158513, “Identification and SAR of novel pyrrolo[1,2-a]pyrazin-1(2H)-one derivatives as inhibitors of poly(ADP-ribose) polymerase-1 (PARP-1)” (Bioorg Med Chem Lett, 2010).
